One compound from patent publication US12447135B2 (University of South Florida, priority 2021, dated 2025) can be followed below.

For one experiment, the system named is FFAR2 signaling. Briefly: cAMP-Glo assay, forskolin-induced cAMP in SK-N-SH cells. Type of experiment: cell-based, human. The following applies: 10 μM compound, 10 μM forskolin. As for the experimental part: FFAR2 is a Gi/o signaling receptor, which reduces cytosolic cAMP (Falomir-Lockhart et al., 2019). To determine the FFAR2 signaling activating potential of selected compounds, the cAMP-Glo™ Assay was used to measure intracellular cAMP. SK-N-SH cells (1×10^3 cells per well) were plated in a white 96-well plate for 24 h and then treated with 10 μM compounds and 10 μM forskolin (a positive control) dissolved in induction buffer. The cAMP levels were detected using a Luminescence Microplate Reader.

The subject of experiment [1] is SK-N-SH cells. Briefly: Aβ-induced neurotoxicity, MTT viability assay. The class given is cell-based, human. As for the experimental part:
To determine the impact of FFAR2 inhibition on Aβ-induced neuronal cell toxicity, the MTT viability assay was performed (Ronicke et al., 2008). SK-N-SH cells (1×10^3 cells per well) were plated in a 96-well plate containing DMEM medium supplemented with 10% FBS and 1% antibiotics and grown at 37° C. for 24 h. Then, media was removed, and cells were washed with PBS before being replenished with DMEM media containing 1% FBS and 10 μM FFAR2 inhibitor (CATPB, Tocris) and incubated at 37° C. for 2 h. Then, cells were treated with Aβ 25-32 peptide (25 μM, Sigma) and incubated for 4 h. Afterward, the media was replaced with 100 μl of fresh media, and 10 μl of MTT reagent (5 mg/ml in phosphate buffer [pH 7.2]) was added and mixed in each well before an additional 4 h incubation. Then, DMSO (50 μl) was added in each well and mixed thoroughly to dissolve formazan crystals. The absorbance was measured at 570 nm.
(Tetrazolium assays rely on reduction of a dye to a coloured formazan, in cell work by metabolically active cells.)

A further experiment deals with proteasome. In words: Proteasome activity assay in C. elegans. The class given is in vivo. Particulars: C. elegans (CL2006). As to the method:
The CL2006 strain, SK-N-SH cells, and brain tissues were sonicated in a lysis buffer (150 mM NaCl, 50 mM HEPES, 2 mM DTT, 20 mM NaF, 5 mM EDTA, 2.5 mM sodium pyrophosphate, 1 mM sodium orthovanadate, and 1 mM α-glycerophosphoric acid) and then centrifuged at 15,000 g at 4° C. for 15 min. Total protein was assayed using BCA kit and 20 μg protein was mixed with 140 μM suc-leu-leu-val-tyr-7-amino-4-methylcou-marin (AMC) in a proteasome activity assay buffer (150 mM NaCl, 50 mM HEPES [pH 7.4], 5 mM ATP, and 5 mM EDTA), and then the fluorescence (excitation 380 nm and emission 460 nm) was measured every 10 min over 3 h using a microplate reader. The assay was performed with and without the proteasome inhibitor MG132 (10 μM).

In experiment [2] the test system is SK-N-SH cells. In words: Aβ accumulation in SK-N-SH cells (western blot). The class given is cell-based, human. Particulars: vs Aβ-only treated controls, FFAR2 dependent. As to the method:
(§1) To determine the FFAR2 signal activating property of selected compounds, SK-N-SH cells were treated with 10 μM of shortlisted compounds for 30 min at 37° C. and harvested for total protein extraction. Cells were harvested after 30 min of incubation because ERK1/2 phosphorylation upon FFAR2 activation is a quick event (Jiao et al., 2002; Bhattacharjee et al., 2010). Total protein from the cells was extracted using a lysis buffer [consisting of 10 mmol/L Tris (pH 7.6), 150 mmol/L NaCl, 10 mmol/L Sodium orthovanadate, 10 mmol/L Sodium Pyrophosphate, 100 mmol/L Sodium fluoride, 1 mmol/L EDTA, 1 mmol/L EGTA, 1% Triton X-100, 0.5% NP-40 and a cocktail of protease inhibitors (Roche); Yadav et al., 2011, 2017; Ahmadi et al., 2019, 2020a]. After sonication, cell extracts were centrifuged at 8,000×g for 10 min at 4° C., and the supernatant was separated in a fresh tube. The total protein concentration of the supernatant was measured using a BCA protein assay kit. […] Band densities were also quantified using NIH ImageJ software. β-actin was used as an internal control.

Experiment [3] concerns SK-N-SH cells. Briefly: Senescence β-galactosidase staining. The class given is cell-based, human. The following applies: Aβ-treated cells, Fenchol. As for the experimental part:
After overnight incubation, Aβ 25-32 (25 μM) peptide was added to the cells for 4 h. The Senescence β-Galactosidase Staining Kit (Cell Signaling, USA) was used for the detection of the expression of β-galactosidase activity, following the manufacturer's instructions.

Experiment [4] concerns C. elegans overexpressing human Aβ. In words: Aβ accumulation in C. elegans (thioflavin S staining, western blot). Particulars: CL2006 worms overexpressing human Aβ, vs DMSO controls. The class given is in vivo. As for the experimental part:
as §1
Then, the worm bodies were permeabilized in 1% Triton X-100, 125 mM Tris (pH 7.4), and 5% fresh β-mercaptoethanol. […] A total of 20 worms were counted from each group.

Experiment [5] deals with SK-N-SH cells. In words: Lysosome activity in SK-N-SH cells. The following applies: 10 μM, vs controls. Type of experiment: cell-based, human. As to the method: Bafilomycin was used as an inhibitor of cellular autophagy/lysosomal activity. The lysosomal activity was assayed using the Enz@ lysozyme assay kit (E-22013, Molecular Probes) and the fluorescence was measured in a fluorescence microplate reader using excitation and emission wavelengths of 494 nm and 518 nm, respectively (Biotek Instruments, VT, USA).

In experiment [6] the test system is SK-N-SH cells. Briefly: Total protein ubiquitination, western blot (P4D1). The class given is cell-based, human. As for the experimental part:
as §1
A general note: Immunoblotting shows a protein as a band on a membrane.

Consider `CC12CCC(C1)C(C)(C)C2O` (stereo not shown) [Fenchol], for which, in the experiment on FFAR2 signaling, the “cAMP upon Forskolin-stimulation, ascending order” value is recorded as “Fenchol<Carvamenthenol<α-Terpineol<Carene<Pentanone<Octopamine<Camphene” and the “decrease in cAMP upon Forskolin-stimulation” value was “highest decrease”. The “protection in cell viability with FFAR2 inhibitor” value in the experiment on SK-N-SH cells [1] (Fenchol together with FFAR2 inhibitor, Aβ) was “no significant protection”. Besides, the “Aβ-induced neuronal cell death” value in the experiment on SK-N-SH cells [1] (vs DMSO controls) is “significantly reduced”. In addition, in the experiment on proteasome, the proteasomal activity result was “significantly increased”. Further, in the experiment with SK-N-SH cells [2], the Aβ-accumulation result is “significantly reduced”. Moreover, the “number of senescent neuronal cells” value with SK-N-SH cells [3] is given as “significantly reduced”. Moreover, the Aβ accumulation result in experiment [4] is “significantly reduced”. For the same compound, in the experiment with SK-N-SH cells [5], the lysosomal activity entry was “significantly increased”. The protein ubiquitinylation entry in the experiment with SK-N-SH cells [6] was “did not change”.
